The values below come from patent US20240269194A1, “COMPOSITIONS AND METHODS FOR ISLET CELL TRANSPLANTS” (City of Hope, priority 2021, published 2024).

Entries after “also recorded” stand apart in the source; their conditions may differ.

The target of one experiment is T1, gastrin receptor CCKBR (Homo sapiens, UniProt P32239).
T1 construct: Human islets express the gastrin receptor CCKBR; from tissue; host or cells: isolated human pancreatic islets from donors
Description: Gastrin receptor blockade with YM022, qPCR in human islets. In kind it is cell-based. As to conditions: YM022 together with 100 nM gastrin, donors with high HbA1c. The procedure:
To establish that gastrin effect is mediated through activation of the gastrin receptor CCKBR, islets were treated with either 100 nM gastrin or 100 nM gastrin together with the CCKBR antagonist YM022.

For experiment [1], the system named is human islets. Description: qPCR gene expression in isolated human islets treated for 48 hours. In kind it is cell-based. The procedure: Isolated human islets from 11 donors with varied glycemic control (HbA1c 5.2-10.4) were treated with GAST-17 for 48 hours and gene expression was analyzed by qPCR. […] Gene expression levels were not increased in islets from donors with an HbA1c <6.0 (FIG. 9). The increase in insulin mRNA correlated with the HbA1c levels, with higher insulin transcripts seen in islets from donors with more elevated HbA1c (FIG. 10).
In general terms: Real-time PCR tracks product formation cycle by cycle.

Experiment [2] deals with transplanted human islets. Description: Human islets transplanted to livers of NOD mice: 18F-TCE4 microPET, insulin staining, blood glucose. The class given is in vivo, mouse. The conditions noted are these: 150 μg/kg/dose three times daily, 30 days. As for the experimental part:
Isolated human islets were transplanted (Tx) to the livers of NOD mice followed by GAST-17 treatment for 30 days (150 μg/kg/dose, injected three times daily) (Tx+Treated, n=7) and compared to mice receiving islet transplant alone (Tx only, n=5) and untreated controls (Normal, n=5). After completion of treatment, whole mice and organs of interest were imaged (in vivo and ex vivo) with ^18F-TC-Exendin-4 (TCE4) using microPET and a high specific activity labeling technique developed at COH for targeting islets (49). […] Beta cell mass was calculated as percent beta cell area of the total cell surface area found on immunolabeled tissue sections. Data from 4 livers from mice treated with islet transplant alone (“−Gastrin”) and five livers from mice treated with islet transplant and gastrin treatment (“+Gastrin”) (˜32 slides per liver) were assessed.
Gastrin analogue, GATS-17, promotes expansion/neogenesis of transplanted human islets. Isolated human islets were transplanted (Tx) into livers of NOD/SCID mice followed by GAST-17 treatment for 30 days (150 μg/kg/dose, injected three times daily) (Tx+Treated, n=7) and compared to mice receiving islet transplant alone (Tx only, n=5) and untreated controls (Normal, n=5). After completion of treatment, whole mice and organs of interest were imaged (in vivo and ex vivo) with ^18F-TC-Exendin-4 (TCE4) using microPET (a high specific activity labeling technique developed at COH for targeting islets).

The subject of the next experiment is non-diabetic Wistar rats. Put plainly: Beta and alpha cell content of pancreas by laser scanning cytometry after 30-day treatment. In kind it is in vivo, rat. As for the experimental part:
The islet expansion effects of GAST-17 were evaluated in non-diabetic Wistar rats (10 males and 10 females in each group). At the end of 30-day treatment, animals were terminated, pancreata excised and immuno-stained for beta and alpha cell content using laser scanning cytometry (LSC) (FIGS. 2A and 2B).
Gastrin analogue, GAST-17, stimulates beta cell expansion. T2D individuals display a loss of beta cell numbers and function. Increasing beta cell mass is considered a possible therapy for T2D (37). The islet expansion effects of GAST-17 were evaluated in non-diabetic Wistar rats (10 males and 10 females in each group). At the end of 30-day treatment, pancreata were excised and stained for beta and alpha cell content counting using laser scanning cytometry (FIGS. 24A and 24B).

Another experiment deals with T1D patients. In kind it is in vivo, human. As for the experimental part:
Gastrin is a natural hormone that is secreted by the stomach and is involved in fetal pancreas development. […] Building on these observations, it was tested whether gastrin treatment will improve islet engraftment, induced beta cell expansion/function, and enhanced islet transplant outcomes in T1D individuals. A gastrin analogue (GAST-17) was produced and obtained FDA-IND approval to evaluate its safety and efficacy in a Phase I/II, prospective, single-arm trial to improve outcomes in T1D recipients undergoing a single islet transplant and two 30-day courses for GAST-17. The trial has been initiated with the first two treated individuals achieving insulin independence with roughly half of the islet dose normally required.
The success of clinical islet transplantation depends on transplantation of adequate islet mass and minimizing graft loss secondary to ischemia and inflammation. After infusion into the portal vein, islets are exposed to damaging inflammatory factors (the so-called instant blood-mediated inflammatory reaction, IBMIR). This involves activation of the complement and coagulation cascades, ultimately resulting in clot formation and infiltration of leukocytes into the islets. The IBMIR may be triggered by islet surface molecules, such as tissue factor and collagen residues that are normally not in direct contact with the blood. Also, ischemic stress during islet isolation results in production of inflammatory mediators by islets. Strategies to mitigate the IBMIR include the treatment of recipients with anticoagulants or pre-conditioning islets with anti-inflammatory agents. As inflammatory reactions are thought to negatively impact islet engraftment in the early post-transplant period, etanercept, a TNFα mitigator, and anakinra, an IL-1 receptor antagonist, are used to limit acute transplant-related inflammation. […]
Treatment course 1. […] Subjects are monitored for adverse effects and assessed for preliminary efficacy at 1, 2.5, and 6 months after starting the first course of GAST-17. […]

The subject of experiment [3] is human islets. Description: Long-term human islet culture with and without GAST-17, inflammatory gene expression. The conditions noted are these: non-diabetic donors, long-term culture (1516 days), 21% oxygen. In kind it is cell-based. The procedure:
Long-term islet culture is associated with expression of inflammatory cytokines and islet stress/damage. Human islets from non-diabetic donors were cultured with and without GAST-17 long-term (1516 days) at normal oxygen concentrations (21%).

The test system of experiment [4] is human islets. Description: Human islets challenged with inflammatory cytokines, glucose-mediated insulin secretion. The class given is cell-based. As to conditions: inflammatory cytokine challenge. The procedure: Gastrin is expressed in insulin^+ and somatostatin^+ cells in islets from people with T2D. As noted, gastrin increased insulin/somatostatin in delta cells, and this correlated positively with islet donor A1c levels (64). Extending these published and new findings, human islets were challenged with inflammatory cytokines (to mimic the harsh environment of transplantation) in the presence and absence of GAST-17 and glucose-mediated insulin secretion was determined.

Where [5] appears, read: donors HbA1c >6.0 (n=5), P<0.0001.

T1 sequence (P32239 whole entry): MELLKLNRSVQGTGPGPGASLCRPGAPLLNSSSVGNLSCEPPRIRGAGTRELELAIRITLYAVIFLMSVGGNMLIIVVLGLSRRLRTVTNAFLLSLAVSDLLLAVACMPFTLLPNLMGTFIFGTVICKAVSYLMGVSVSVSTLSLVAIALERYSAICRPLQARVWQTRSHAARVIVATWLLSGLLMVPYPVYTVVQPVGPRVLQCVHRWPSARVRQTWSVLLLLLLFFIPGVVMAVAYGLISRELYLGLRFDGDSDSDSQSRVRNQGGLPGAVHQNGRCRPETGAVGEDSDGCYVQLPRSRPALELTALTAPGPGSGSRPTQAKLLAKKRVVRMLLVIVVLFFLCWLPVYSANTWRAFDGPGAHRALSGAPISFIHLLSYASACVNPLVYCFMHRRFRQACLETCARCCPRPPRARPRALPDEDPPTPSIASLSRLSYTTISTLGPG

Take `Cc1cccc(NC(=O)N[C@@H]2N=C(c3ccccc3)c3ccccc3N(CC(=O)c3ccccc3C)C2=O)c1` [YM022]: the “insulin, somatostatin and glucagon mRNA levels” value on gastrin receptor CCKBR is reported as “remained un-changed”.

Consider [Leu^15] Gastrin-17 [GAST-17], for which the “gene expression levels (insulin, somatostatin, glucagon)” value with human islets [1] (donors HbA1c <6.0) is “not increased”. Also, in the experiment on human islets [1] (setting [5]), the insulin transcripts result is “significant increase” and the somatostatin transcripts entry is given as “significant increase”. For the same compound, the glucagon transcripts entry with human islets [1] (donors HbA1c >6.0 (n=5), P<0.02) is reported as “significant increase”. Further, in the experiment on human islets [1] (only in HbA1c >6.0 group), the “mRNA levels of transcription factors MAFA, MNX1, NKX2.2, NKX6.1, PDX1 and HHEX” value was “significant increases”. For the same compound, in experiment [2] (p=0.000063), the “native beta cell expansion, ex vivo imaging of the pancreas” value is “significant expansion”. For the same compound, the “18F-TCE4 uptake by islet grafts in liver, in vivo (whole body images)” value in experiment [2] (vs control group, p=0.000015) is on record as “significantly increased; also recorded: significantly higher”. For the same compound, the “18F-TCE4 uptake by islet grafts, ex vivo (excised liver)” value in experiment [2] (vs control group, p=0.000036) is given as “significantly increased; also recorded: significantly higher”. Besides, in the experiment with non-diabetic Wistar rats (30-day treatment vs controls), the “percentage of alpha cells” value was “did not change”. The “average percentage of beta cells of total cells per slide” value in the experiment with non-diabetic Wistar rats (30-day treatment, all treatment groups vs controls) is “significantly increased”. In addition, the insulin independence result in the experiment with T1D patients (first two T1D patients, single islet transplant <6,100 IEQ/kg) is recorded as “achieving insulin independence with half of the islet mass normally required”. Moreover, the “engraftment and blood glucose normalization” value in the experiment on T1D patients (two T1D individuals, 15 μg/kg twice daily, month 1 and 7, <6,100 IEQ/kg) was “rapid engraftment and total normalization of blood glucose”. Moreover, in the experiment with T1D patients (two patients, single IT (<6,100 IEQ/kg BW)), the “time to insulin freedom” value was “achieved insulin freedom within two weeks”. In the experiment on human islets [3], the “expression of IL-10” value was “increased expression of IL-10” and the “islet expression of inflammatory genes” value is reported as “reduced islet expression of inflammatory genes”. In addition, in the experiment on human islets [4], the glucose-mediated insulin secretion result is on record as “enhanced insulin secretion”, the “human islet damage from inflammatory cytokines” value was “reduced human islet damage from inflammatory cytokines” and the “insulin+/somatostatin+ cell numbers” value was “increased insulin+/somatostatin+ cell numbers”.
